Laboratory results published in PubChem BioAssay AID179 (DTP/NCI, 2004).
“And” between values parts separate entries of the source, which are not always exact repeats. Equal values may be shown once. The source made the active and inactive calls.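 The calls were made as follows: active = compounds giving half or more protection of infected cells from virus-caused growth loss, again on retest; inactive = the rest.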 Where a SMILES comes first, the peptide text is derived from it. The star is where a group is joined. Boc = CC(C)(C)OC(=O)*; OBn = c1ccc(CO*)cc1

Tested on: CEM cells HIV-1 protection, formazan growth assay
Test: NCI AIDS Antiviral Assay
Settings: for IC50: measured here: growth of uninfected CEM cells
Procedure, shortened: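 Five concentrations of each compound were applied to infected and uninfected human CEM cells. Protection from HIV-1 was judged from growth measured with a soluble formazan assay.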

Compound | EC50 | IC50 | outcome
BrC1=CCC23CC=C(Br)[C@H]4CC2(COC3)C[C@@H]1O4 (stereo partly drawn) | > 200 µM | 25.1 µM | –
Cc1cc2c(cc1C)[n+](=O)c(C(=O)C/C(=N/OCCCc1ccccc1)C(=O)Nc1cc(Cl)ccc1Cl)c(C)n2[O-] | > 6.31 µM | > 6.31 µM | –
O=[N+]([O-])C1(CO)COC2(OC1)c1ccccc1-c1ccccc12 | – | – | inactive
Cc1ccc(S(=O)(=O)N/N=C2\CC3C4C=CC3C2C4)cc1 (stereo not drawn) | > 200 µM | > 200 µM | –
Clc1ccc(-c2c(C3=NCCN3)nnn2-c2ccc(Cl)cc2)cc1 | > 138 µM | 115 µM | –
Cc1cc2c(C(C)C)c(O)c(O)c(C=NCCO)c2c(O)c1-c1c(C)cc2c(C(C)C)c(O)c(O)c(C=NCCO)c2c1O | – | – | inactive
Cc1cc(Cl)cc2c1S/C(=C1\Sc3c(C)cc(Cl)cc3C1=O)C2=O | > 200 µM | > 200 µM | –
COc1ccc(C(=O)C2CCC(C(=O)O)C2)cc1 (stereo not drawn) | – | – | inactive
CC1OC(n2cc(I)c(=O)[nH]c2=O)C=CC1=O (stereo not drawn) | > 347 µM | 2.14 µM | –
CC(=O)Nc1ccc(-c2nnc(SCC(=O)Nc3ccc(Cl)cc3Cl)o2)cc1 | > 42.7 µM | 25.1 µM | –
O=NN1C(c2ccccc2)CNC(=O)CC1c1ccccc1 (stereo not drawn) | – | – | inactive
O=C(N=Nc1cccc(Cl)c1)NNc1cccc(Cl)c1 | > 200 µM | 15.5 µM | –
CC(=O)C(=Cc1cccc(Br)c1)C(C)=O | > 135 µM | 7.41 µM | –
OCC1(CO)CCC1(CO)CO | – | – | inactive
CCN(CC)Cc1cc(O)c(CN(CC)CC)cc1O | > 891 µM | 72.4 µM | –
CCOC(=O)Cc1csc(N=Nc2c(O)[nH]c3ccccc23)n1 | > 200 µM | 110 µM | –
Cc1cc(NS(=O)(=O)c2ccc(NC(=O)c3ccc4nc5ccccc5c(Nc5ccc(S(=O)(=O)N=C(N)N)cc5)c4c3)cc2)no1 | > 75.9 µM | 24.5 µM | –
O=C1/C(=C\c2cccc(Oc3ccccc3)c2)S(=O)(=O)C(c2ccccc2)N1c1ccc(Cl)cc1 (stereo not drawn) | > 20 µM | – | –
N[C@@H]1C[C@H](N)c2c(Cl)sc(Cl)c21 | > 200 µM | 141 µM | –
O=[N+]([O-])c1ccc(Sc2c3ccccc3nc3ccccc23)cn1 | > 100 µM | 7.24 µM | –
N#Cc1c(N2CCCC2)nsc1NCc1ccccc1 | > 200 µM | > 200 µM | –
O=C(O)c1ccccc1C1c2ccccc2Oc2ccccc21 | > 200 µM | 35.5 µM | –
O=C(Nc1nc2c(ncn2C2OC(CO)C(O)C2O)c(=O)[nH]1)c1ccccc1 (stereo not drawn) | > 646 µM | 251 µM | –

Compound | EC50 | IC50 | outcome
CCCCCCCCCCCCCCCCCC(=O)NCC(COP(=O)(O)O)OCC (stereo not drawn) | > 21.4 µM | > 21.4 µM | –
CC1=CC(C(=O)O)P(C)(=O)C1 (stereo not drawn) | – | – | inactive
CN(C)CCC1(c2ccccc2)C=Cc2ccccc21 (stereo not drawn) | > 200 µM | 107 µM | –
O=C(NC(Cc1cnc[nH]1)C(=O)N1CCCC1)C1CCCC1 (stereo not drawn) | > 200 µM | – | –
CC1C(=O)c2c(O)cc(O)cc2O[C@@H]1C (stereo partly drawn) | > 200 µM | > 200 µM | –
COc1ccccc1NCC(=O)Nn1c(C)nc2ccc(S(=O)(=O)Nc3ccccc3OC)cc2c1=O | > 200 µM | 148 µM | –
CC[C@@]12N=C(N(C)C)C[C@]1(O)ON=C2C | > 200 µM | > 200 µM | –
COC(=O)c1ccccc1C1CN=NC12Cc1c(C)cccc1C2=O (stereo not drawn) | > 200 µM | 151 µM | –
COC(=O)C1=C(C(=O)OC)SC(=C2C(=O)c3ccccc3-c3ccccc32)S1 | – | – | inactive
CC1CC2OC(=O)C3CCCC(=C23)[C@@]12C[C@@H](c1ccoc1)OC2=O (stereo partly drawn) | > 550 µM | 269 µM | –
CC(C)OP(=O)(OC(C)C)C(C(F)(F)F)C(F)(F)F | > 200 µM | > 200 µM | –
CNc1c(Cl)cc(/C=C2\C=Cc3ccccc32)cc1Cl | > 17.4 µM | 12.9 µM | –
CCOC(=O)c1c(SCC#N)n(-c2ccccc2)c(=S)n(-c2ccccc2)c1=O | > 200 µM | 13.8 µM | –
CCOC(=O)/C(=C\c1ccc(C)o1)P(=O)(OCC)OCC | > 794 µM | > 100 µM | –
C[Si](C)(C)/C=C\CCNC=O | > 1450 µM | > 1450 µM | –
NC(=O)CCCC(NCc1c2ccccc2nc2ccccc12)C(=O)O (stereo not drawn) | – | – | inactive
N=C(N)SCc1ccc2nsnc2c1 | > 309 µM | 52.5 µM | –
COc1ccc2c3c1C(=O)CCCC3CO2 (stereo not drawn) | – | – | inactive
CC(=O)C1=C2SCCN2C(=O)CC1 | > 135 µM | > 135 µM | –
COc1ccc(-n2c(SCC(=O)NC(=O)Nc3ccccc3)nc3c(Br)cc(Br)cc3c2=O)cc1 | > 200 µM | > 200 µM | –
CSc1nc2c(c(N(C)C)n1)C(O)n1c(nc3ccccc31)S2 (stereo not drawn) | > 200 µM | > 200 µM | –
Cc1cc(N(CCC#N)CCC#N)ccc1/C=C\C(=O)Nc1ccccc1 | > 692 µM | > 692 µM | –
C=CCNC1=C(C(=O)OCC)C(=O)CO1 | > 1170 µM | > 1170 µM | –

Compound | EC50 | IC50 | outcome
O=[n+]1c2c(n([O-])c3ccc4ccccc4c31)-c1cccc3cccc-2c13 | > 100 µM | > 100 µM | –
O=C1C2Cc3ccccc3CN2C(=O)N1CN1CCN(CN2C(=O)C3Cc4ccccc4CN3C2=O)CC1 (stereo not drawn) | > 10 µM | > 10 µM | –
Oc1ccc[n+](Cc2ccccc2)c1 | > 200 µM | > 200 µM | –
O=C(O)c1nc2cc(C(F)(F)F)ccc2nc1Nc1ccc(Cl)c(Cl)c1 | > 200 µM | 10 µM | –
Cn1c2ccc3cc2c(=S)c2cc(ccc21)OCCOCCOCCOCCOCCO3 | > 200 µM | 61.7 µM | –
COC(=O)Nc1cn2ccc(C(Cl)=C(Cl)Cl)cc2n1 | > 30.9 µM | 0.0331 µM | –
Cc1cccc2c1Sc1ccccc1C2NC(=O)CCN(C)C (stereo not drawn) | > 550 µM | 31.6 µM | –
CCOC(=O)/C(C#N)=C/c1[nH]c(C)c(C)c1C | – | – | inactive
N#Cc1c(-c2cccc3ccccc23)c2c([nH]c1=S)CCCC2 | > 79.4 µM | 34.7 µM | –
COc1cc(OC)c(-c2cc(=O)c3c(OC)c(OC)c(OC)c(OC)c3o2)cc1OC | > 200 µM | 19.5 µM | –
O=C1OC(c2ccccc2)(c2ccccc2)c2ccsc21 | > 200 µM | 69.2 µM | –
O/N=C1/CCCCC1NO (stereo not drawn) | > 200 µM | 117 µM | –
c1ccc(C2=NNc3cccc[n+]3C2)cc1 | > 871 µM | 447 µM | –
C#CC1(O)CCC2[C@@H]3CCc4cc(Oc5nc(F)nc(-c6c7ccccc7cn6C)n5)ccc4C3CC[C@@]21C (stereo partly drawn) | > 10 µM | > 10 µM | –
O=[N+]([O-])O[C@H]1CO[C@H]2[C@@H]1OC[C@H]2O[N+](=O)[O-] | > 200 µM | > 200 µM | –
O=[As](O)(O)c1cc(N=Nc2ccc(-c3ccc(N=Nc4cc([As](=O)(O)O)c(O)cc4O)cc3)cc2)c(O)cc1O | 6.61 µM | 7.76 µM | –
CCCN=C(C(C)=O)N(C)C | > 1580 µM | 871 µM | –
COc1cc(N=Nc2ccccc2C(=O)[O-])cc(/C=N/NC(N)=S)c1[O-].[O]=[Mo]=[O].[O]=[Mo]=[O] | – | – | inactive
COC(=O)C1CC(=O)CCC1c1ccccc1 (stereo not drawn) | > 347 µM | > 347 µM | –
C=CC1CC1(CO)COc1cc(Cl)nc(N)n1 (stereo not drawn) | > 200 µM | 141 µM | –
OC[C@H]1S[C@H](c2ccccc2)C[C@H]1O | > 200 µM | > 200 µM | –
CC(C)CC(NC(=O)OC(C)(C)C)C(=O)N1CCCC1C(=O)OCc1ccccc1 (stereo not drawn) (Boc-Leu-Pro-OBn; configuration not given here) | > 200 µM | 52.5 µM | –
CN(C(=O)C12C3(C(=O)C(C)(C)C)C4C5(C#N)C3C1(C(=O)C(C)(C)C)C5C42C(=O)C(C)(C)C)C(C)(C)C (stereo not drawn) | > 52.5 µM | > 52.5 µM | –

Compound | EC50 | IC50 | outcome
CC(C)(C)C1CCC(O)(c2ccccc2)CC1 (stereo not drawn) | > 42.7 µM | > 42.7 µM | –
CN(O)C(=O)c1ccc(OCc2cccc(Cl)c2)cc1 | > 200 µM | 12.6 µM | –
CCOC(=O)C1C(c2ccc(OC)cc2)c2c([nH]n(-c3ccccc3)c2=O)CC1(O)OCC (stereo not drawn) | > 200 µM | 9.12 µM | –
Cc1cccc(NC(=O)/C=C/c2ccc(N(CCC#N)CCC#N)cc2C)c1 | > 676 µM | > 676 µM | –
CC(=O)OC(OC(C)=O)c1c2ccccc2cc2ccccc12 | > 200 µM | 9.77 µM | –
C=C1CCC23CC(CC[C@@H]2[C@@]12C[C@@H](c1ccoc1)OC2=O)OC3=O (stereo partly drawn) | > 79.4 µM | > 79.4 µM | –
COc1cccc(C=C2C(=O)c3ccccc3C2=O)c1 | – | – | inactive
CCN1CCN=c2c3cc(OC)ccc3n3cnc4ccc1c2c43 | > 20 µM | 0.0955 µM | –
CCOP(=O)(OCC)C(N)Cc1ccc(OC)c(OC)c1 (stereo not drawn) | > 200 µM | > 200 µM | –
COc1ccc(C(CC(=O)C(C)(C)CN2CCCCC2)SCCS(=O)(=O)O)cc1 (stereo not drawn) | > 200 µM | 13.2 µM | –
Cc1cc(N)ccc1C=O | > 200 µM | > 200 µM | –
O=C1NC(=O)C2(CC2)C(=O)N1 | > 200 µM | 13.2 µM | –
C=Cc1ccc(C)[n+](C[Si](C)(C)O[Si](C)(C)C)c1 | > 617 µM | 309 µM | –
Cc1ccc2c(ccc(/C=C\c3cc(C)c4cccnc4c3O)[n+]2C)c1 | > 39.8 µM | 0.776 µM | –
Cc1ccc(-n2cc(/C(N)=N/O)c3ccccc3c2=O)cc1 | > 89.1 µM | > 89.1 µM | –
CN(C)/C=N\c1nn[nH]n1 | > 200 µM | 3.63 µM | –
CCOC(=O)CCC(NC(=O)c1ccc(Oc2nc3c(N)cc(C(F)(F)F)cc3nc2-c2ccccc2)cc1)C(=O)OCC (stereo not drawn) | > 200 µM | 112 µM | –
CC1=Nc2nc(Cl)cn2C(=O)C1(Cl)Cl | > 200 µM | 33.1 µM | –
N/C(=N/N=C/c1cc(Cl)ccc1O)N/N=C\c1cc(Cl)ccc1O | > 2 µM | 1 µM | –
O=C1CC(c2ccc(O)cc2)Oc2cc(O)cc(O)c21 (stereo not drawn) | > 200 µM | > 100 µM and 87.1 µM | –
O=C(O)CC1C(=O)OC2C3COC(=O)c4cc(O)c(O)c(O)c4-c4c(cc(O)c(O)c4O)C(=O)OC2C(OC(=O)c2cc(O)c(O)c4c2C1C(O)C(=O)O4)C(OC(=O)c1cc(O)c(O)c(O)c1)O3 (stereo not drawn) | 3.31 µM | 18.6 µM | –
Cc1noc2c1CSC1=C2S(=O)(=O)N(C)c2ccccc21 | > 58.9 µM | > 58.9 µM | –
